Results published in patent US9480259B2, “Pyrazolopyrans having herbicidal and pharmaceutical properties” (BASF SE, priority 2012, dated 2016).
pEC50: −log10 of the molar value.

Biological target: Arabidopsis thaliana SHMT
Assay: SHMT activity assay (ED50 SHMT), coupled with N5,N10-CH2-THF dehydrogenase, NADH at 340 nm
Format: biochemical
How it was run: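 His-tagged SHMT purified on Ni-NTA. NADH formation followed at 340 nm for 30 min; ED50 from inhibition of initial velocity.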

[1] = Table 2, values given as upper bounds
[2] = inhibition of initial velocity of Arabidopsis thaliana SHMT
[3] = Table 2, Arabidopsis thaliana SHMT enzyme assay, values given as upper bounds
[4] = Arabidopsis thaliana SHMT enzyme assay, values given as upper bounds

Row | Compound | pEC50 [1] | also measured
1 | COCOc1cc(C#N)cc(C2(C3CCC3)C(C#N)=C(N)Oc3[nH]nc(C)c32)c1 (stereo not drawn) [Compound 2.477] | > 8.00 | 
2 | Cc1n[nH]c2c1C(c1ccc(-c3ccccc3C(F)(F)F)s1)(C1CCC1)C(C#N)=C(N)O2 (stereo not drawn) [Compound 4.34] |  | pEC50 [2]: > 8.00
3 | Cc1n[nH]c2c1C(c1cc(Cl)cc(C(=O)OCc3ccccc3)c1)(C1CCC1)C(C#N)=C(N)O2 (stereo not drawn) [Compound 2.381] |  | pEC50 [3]: > 8.00
4 | Cc1n[nH]c2c1C(c1ccc3c(c1)OC(F)(F)O3)(C1CCC1)C(C#N)=C(N)O2 (stereo not drawn) [Compound 4.25] |  | pEC50 [2]: > 8.00
5 | Cc1n[nH]c2c1C(c1cc(Cl)cc(Oc3ccc(O)cc3[N+](=O)[O-])c1)(C1CCC1)C(C#N)=C(N)O2 (stereo not drawn) [Compound 2.481] | > 8.00 | 
6 | COC(=O)c1ccc(-c2cc(C#N)cc(C3(C4(F)COC4)C(C#N)=C(N)Oc4[nH]nc(C)c43)c2)s1 (stereo not drawn) [Compound 2.676] |  | pEC50 [4]: > 7.00
7 | N#CC1=C(N)Oc2[nH]ncc2C1(c1cc(N2CCOCC2)cc(C(F)(F)F)c1)C1CCC1 (stereo not drawn) [Compound 2.274] |  | pEC50 [3]: > 8.00
8 | COC(=O)c1cc(-c2cc(Cl)cc(C3(C4CCC4)C(C#N)=C(N)Oc4[nH]nc(C)c43)c2)ccc1Cl (racemic) [Compound 2.514] | > 8.00 | 
9 | CCC1(c2cc(C#N)cc(C(F)(F)F)c2)C(C#N)=C(N)Oc2[nH]nc(OC)c21 (stereo not drawn) [Compound 2.599] | > 6.00 | 
10 | Cc1n[nH]c2c1C(c1cc3cc(Cl)ccc3s1)(C1CCC1)C(C#N)=C(N)O2 (stereo not drawn) [Compound 4.9] |  | pEC50 [2]: > 8.00
11 | Cc1n[nH]c2c1C(c1cc(Cl)cc(CC(=O)O)c1)(C1(F)CC1)C(C#N)=C(N)O2 (stereo not drawn) [Compound 2.498] | > 7.00 | 
12 | CCCc1n[nH]c2c1C(c1ccc(Cl)cc1)(C1CC1)C(C#N)=C(N)O2 (stereo not drawn) [Compound 2.115.] | > 7.00 | 
13 | COC(=O)c1ccc(-c2cc(Cl)cc(C3(C4CCC4)C(C#N)=C(N)Oc4[nH]nc(C)c43)c2)cc1 (stereo not drawn) [Compound 2.458] | > 7.00 | 
14 | CCC1(c2ccc(OS(=O)(=O)Cc3ccccc3)c(C)c2)C(C#N)=C(N)Oc2[nH]nc(C)c21 (stereo not drawn) [Compound 2.55.] | > 6.00 | 
15 | Cc1n[nH]c2c1C(c1ccc(-c3ccccc3)s1)(C1CC1)C(C#N)=C(N)O2 (stereo not drawn) [Compound 4.55] |  | pEC50 [2]: > 7.00
16 | CCCC1(c2cc(Cl)cc(C#N)c2)C(C#N)=C(N)Oc2[nH]nc(CC)c21 (stereo not drawn) [Compound 2.577] | > 7.00 | 
17 | Cc1n[nH]c2c1C(c1cc(C#N)cc(N(C)C(=O)Cc3nnn[nH]3)c1)(C(C)C)C(C#N)=C(N)O2 (stereo not drawn) [Compound 2.721] |  | pEC50 [4]: > 7.00
18 | Cc1n[nH]c2c1C(c1cc(Cl)cc(Oc3cccc(Cl)c3)c1)(C1CCC1)C(C#N)=C(N)O2 (stereo not drawn) [Compound 2.237] |  | pEC50 [3]: > 8.00
19 | Cc1n[nH]c2c1C(c1cc(Cl)c3c(c1)CCO3)(C1CCC1)C(C#N)=C(N)O2 (stereo not drawn) [Compound 4.12] |  | pEC50 [2]: > 8.00
20 | CCC1(c2cc(C(F)(F)F)cc(C(F)(F)F)c2)C(C#N)=C(N)Oc2[nH]nc(C)c21 (stereo not drawn) [Compound 2.47.] | > 7.00 | 
21 | Cc1n[nH]c2c1C(c1cc(-c3ccccc3)cs1)(C(C)C)C(C#N)=C(N)O2 (stereo not drawn) [Compound 4.81] |  | pEC50 [2]: > 5.00
22 | Cc1n[nH]c2c1C(c1ccc(OC(F)(F)F)c(Cl)c1)(C1CCC1)C(C#N)=C(N)O2 (stereo not drawn) [Compound 2.303] |  | pEC50 [3]: > 8.00

Row | Compound | pEC50 [1] | also measured
23 | Cc1n[nH]c2c1C(c1cc(C#N)cc(N(C)C(=O)CCCC(=O)O)c1)(C1CCC1)C(C#N)=C(N)O2 (stereo not drawn) [Compound 2.636] | > 8.00 | 
24 | COc1n[nH]c2c1C(c1cc(Br)cc(C#N)c1)(C1(F)CC1)C(C#N)=C(N)O2 (stereo not drawn) [Compound 2.394] |  | pEC50 [3]: > 7.00
25 | CCCC1(c2cc(C#N)cc(C#N)c2)C(C#N)=C(N)Oc2[nH]nc(C(F)F)c21 (stereo not drawn) [Compound 2.610] | > 7.00 | 
26 | Cc1n[nH]c2c1C(c1ccc(O)c(Cl)c1)(C1CCC1)C(C#N)=C(N)O2 (stereo not drawn) [Compound 2.485] | > 8.00 | 
27 | Cc1n[nH]c2c1C(CC(C)C)(c1cc(C(F)(F)F)cc(C(F)(F)F)c1)C(C#N)=C(N)O2 (stereo not drawn) [Compound 2.108.] | > 7.00 | 
28 | Cc1n[nH]c2c1C(c1ccc(-c3cccc(C(F)(F)F)c3)s1)(C1CCC1)C(C#N)=C(N)O2 (stereo not drawn) [Compound 4.43] |  | pEC50 [2]: > 8.00
29 | COC(=O)c1ccc(-c2cc(C#N)cc(C3(C4CCC4)C(C#N)=C(N)Oc4[nH]nc(C)c43)c2)cc1C(=O)OC (stereo not drawn) [Compound 2.550] | > 8.00 | 
30 | CCc1n[nH]c2c1C(c1ccc(OC)c(Cl)c1)(C1CC1)C(C#N)=C(N)O2 (stereo not drawn) [Compound 2.151.] | > 6.00 | 
31 | COC(=O)c1ccc(-c2cc(C#N)cc(C3(C4CCC4)C(C#N)=C(N)Oc4[nH]nc(OC)c43)c2)cc1 (stereo not drawn) [Compound 2.454] | > 6.00 | 
32 | Cc1n[nH]c2c1C(c1cc(C#N)cc(N3CCCC3=O)c1)(C1(F)CC1)C(C#N)=C(N)O2 (stereo not drawn) [Compound 2.452] | > 6.00 | 
33 | Cc1n[nH]c2c1C(c1cc(C#N)cc(N(C)CC(=O)O)c1)(C1CCC1)C(C#N)=C(N)O2 (stereo not drawn) [Compound 2.693] |  | pEC50 [4]: > 7.00
34 | N#CC1=C(N)Oc2[nH]ncc2C1(c1cc(C#N)cc(-c2cscn2)c1)C1CCC1 (stereo not drawn) [Compound 2.352] |  | pEC50 [3]: > 7.00
35 | Cc1n[nH]c2c1C(c1cc(C#N)cc(-c3cc(OC(F)(F)F)cc(C(=O)O)c3)c1)(C1CCC1)C(C#N)=C(N)O2 (stereo not drawn) [Compound 2.643] | > 8.00 | 
36 | Cc1n[nH]c2c1C(c1cc(C#N)cc(-c3ccsc3Cl)c1)(C1CCC1)C(C#N)=C(N)O2 (stereo not drawn) [Compound 2.363] |  | pEC50 [3]: > 8.00
37 | Cc1n[nH]c2c1C(c1cc(C(F)(F)F)cc(C(F)(F)F)c1)(C1(F)COC1)C(C#N)=C(N)O2 (racemic) [Compound 2.501] | > 8.00 | 
38 | Cc1n[nH]c2c1C(c1ccc(CCC#N)c(-c3nnn[nH]3)c1)(C(C)C)C(C#N)=C(N)O2 (stereo not drawn) [Compound 2.736] |  | pEC50 [4]: > 6.00
39 | Cc1n[nH]c2c1C(c1ccc3c(c1)nnn3C(C)C)(C1CCC1)C(C#N)=C(N)O2 (stereo not drawn) [Compound 4.42] |  | pEC50 [2]: > 8.00
40 | CCC1(c2cc(-c3cccs3)cs2)C(C#N)=C(N)Oc2[nH]nc(C)c21 (stereo not drawn) [Compound 4.61] |  | pEC50 [2]: > 7.00
41 | Cc1n[nH]c2c1C(c1cc(-c3cccc(F)c3)cs1)(C1CC1)C(C#N)=C(N)O2 (stereo not drawn) [Compound 4.60] |  | pEC50 [2]: > 7.00
42 | Cc1n[nH]c2c1C(c1cc(CCC#N)cc(-c3nnn[nH]3)c1)(C(C)C)C(C#N)=C(N)O2 (stereo not drawn) [Compound 2.710] |  | pEC50 [4]: > 7.00
43 | CCC1(c2cc(C#N)cc(C(F)(F)F)c2)C(C#N)=C(N)Oc2[nH]nc(C(F)F)c21 (stereo not drawn) [Compound 2.606] | > 8.00 | 
44 | CCC1(c2cc(Cl)cc(C#N)c2)C(C#N)=C(N)Oc2[nH]nc(C(F)F)c21 (stereo not drawn) [Compound 2.605] | > 8.00 | 

Row | Compound | pEC50 [1] | also measured
45 | Cc1n[nH]c2c1C(c1cc(F)c3c(c1)C=CC(C)(C)O3)(C1CCC1)C(C#N)=C(N)O2 (stereo not drawn) [Compound 4.23] |  | pEC50 [2]: > 8.00
46 | CCC1(c2cc(F)c(F)cc2F)C(C#N)=C(N)Oc2[nH]nc(C)c21 (stereo not drawn) [Compound 3.3] |  | pEC50 [2]: > 5.00
47 | Cc1n[nH]c2c1C(c1ccc(CC#N)c(C#N)c1)(C1CCC1)C(C#N)=C(N)O2 (stereo not drawn) [Compound 2.672] |  | pEC50 [4]: > 8.00
48 | Cc1n[nH]c2c1C(c1cccc(C(C)(F)F)c1)(C1CCC1)C(C#N)=C(N)O2 (stereo not drawn) [Compound 2.305] |  | pEC50 [3]: > 7.00
49 | Cc1n[nH]c2c1C(c1cc(C#N)cc(N(C)C(=O)CCC(=O)O)c1)(C1CCC1)C(C#N)=C(N)O2 (stereo not drawn) [Compound 2.632] | > 8.00 | 
50 | CCCCC1(c2cccc(Cl)c2)C(C#N)=C(N)Oc2[nH]nc(C)c21 (racemic) [Compound 2.91.] | > 5.00 | 
51 | COc1ccc(C2(C3CCC3)C(C#N)=C(N)Oc3[nH]ncc32)cc1Cl (stereo not drawn) [Compound 2.253] |  | pEC50 [3]: > 8.00
52 | Cc1n[nH]c2c1C(c1nc3ccc(Cl)cc3o1)(C1CCC1)C(C#N)=C(N)O2 (stereo not drawn) [Compound 4.37] |  | pEC50 [2]: > 8.00
53 | CCCc1n[nH]c2c1C(CC)(c1cc(C(F)(F)F)cc(C(F)(F)F)c1)C(C#N)=C(N)O2 (stereo not drawn) [Compound 2.83.] | > 6.00 | 
54 | Cc1n[nH]c2c1C(c1ccc3ccccc3c1)(C1(F)CC1)C(C#N)=C(N)O2 (racemic) [Compound 4.59] |  | pEC50 [2]: > 7.00
55 | CCC1(c2cc(Cl)cc(Cl)c2)C(C#N)=C(N)Oc2[nH]ncc21 (stereo not drawn) [Compound 2.62.] | > 5.00 | 
56 | CCCC1(c2cc(C#N)cc(C(F)(F)F)c2)C(C#N)=C(N)Oc2[nH]nc(C(C)C)c21 (stereo not drawn) [Compound 2.582] | > 8.00 | 
57 | Cc1n[nH]c2c1C(c1cc(Cl)cc(N(C)C(=O)Cc3nnn[nH]3)c1)(C1CCC1)C(C#N)=C(N)O2 (stereo not drawn) [Compound 2.699] |  | pEC50 [4]: > 7.00
58 | Cc1n[nH]c2c1C(c1cc(Cl)cc(C(F)(F)F)c1)(C1(F)COC1)C(C#N)=C(N)O2 (stereo not drawn) [Compound 2.502] | > 8.00 | 
59 | Cc1n[nH]c2c1C(c1cc(Cl)cc(Oc3ccc(F)cc3)c1)(C1CC1)C(C#N)=C(N)O2 (stereo not drawn) [Compound 2.189.] | > 7.00 | 
60 | COc1ccc(C2(C3CCC3)C(C#N)=C(N)Oc3[nH]ncc32)cc1Br (stereo not drawn) [Compound 2.255] |  | pEC50 [3]: > 8.00
61 | COCOc1cc(Cl)cc(C2(C3CCC3)C(C#N)=C(N)Oc3[nH]nc(C)c32)c1 (stereo not drawn) [Compound 2.445] | > 8.00 | 
62 | CCC1(c2ccc([N+](=O)[O-])cc2)C(C#N)=C(N)Oc2[nH]nc(C)c21 (stereo not drawn) [Compound 2.40.] | > 6.00 | 
63 | Cc1n[nH]c2c1C(c1cc(Cl)cc(CC(=O)O)c1)(C1CCC1)C(C#N)=C(N)O2 (stereo not drawn) [Compound 2.499] | > 8.00 | 
64 | Cc1n[nH]c2c1C(c1cc(Cl)cc(Cl)c1)(C1CC1)C(C#N)=C(N)O2 (stereo not drawn) [Compound 2.61.] | > 6.00 | 
65 | Cc1n[nH]c2c1C(c1ccc(OC(F)(F)F)cc1)(C(C)C)C(C#N)=C(N)O2 (racemic) [Compound 2.145.] | > 6.00 | 
66 | Cc1n[nH]c2c1C(c1cccc(Cl)c1)(C(F)(F)F)C(C#N)=C(N)O2 (stereo not drawn) [Compound 2.87.] | > 5.00 | 
